From patent US4678800A, “Gamma-r-glutamoyl derivatives” (Ciba-Geigy Corporation, priority 1984, dated 1987)

Key:
[1] = test system: spontaneous hypertensive rat; test: in vivo lowering effect on blood pressure and heart rate in hypertensive rats; conditions: dose of 10 mg/kg p.o. or lower
From the text: This is demonstrable by in vivo or in vitro animal tests, using advantageously mammals, e.g., rats, cats, dogs or isolated organs thereof, as test objects. The animals may either be normotensive or hypertensive e.g., genetically hypertensive rats, or renal hypertensive rats and dogs, and sodium-depleted dogs. Said compounds can be applied to them enterally or parenterally, advantageously orally or intravenously, for example within gelatin capsules or in the form of starch suspensions or aqueous solutions, respectively. The applied dosage may range between about 0.01 and 50 mg/kg/day, preferably between about 0.1 and 25 mg/kg/day, advantageously between about 0.1 and 10 mg/kg/day.
The in vivo lowering effect on the blood pressure is recorded either directly by means of a catheter, for example placed in the dog's femoral artery, or indirectly by sphygmomanometry at the rat's tail, and a transducer, expressing the blood pressure prior and after dosing in mm Hg. Thus, for example, the representative members of the compounds of this invention, illustrated by the examples herein, are effective in hypertensive rats and at p.o. doses as low or lower than 10 mg/kg/day.

[2] = test system: angiotensin I converting enzyme; test: inhibition of the angiotensin I pressor response in anesthetized normotensive rats; assay type: in vivo, rat; conditions: intravenous dose as low as 0.1 mg/kg
Procedure: The enzyme renin, normally causes specific hydrolysis of the circulating protein renin-substrate. This hydrolysis generates angiotensin I, which is further hydrolyzed by the action of said converting enzyme to the potent vasoconstrictor angiotensin II. The inhibition of said enzyme prevents the generation of angiotensin II from I and, therefore, attenuates any pressure response following an angiotensin I challenge.
The corresponding in vivo test is performed with male, normotensive rats, which are anesthetized with 100-120 mg/kg i.p. of sodium ethyl-(1-methylpropyl)-malonylthiourea. A femoral artery and saphenous vein are cannulated for direct blood pressure measurement and i.v. administration of angiotensin I and compounds of this invention. After the basal blood pressure is stabilized, pressor responses to 3 challenges of 0.33 μg/kg of angiotension I i.v. , in 5 minute intervals, are obtained. Such pressure responses are again obtained 5, 10, 15, 30 and 60 minutes after either i.v. or p.o. administration (stomach tube) of the compounds to be tested, and compared with the initial responses. Any observed decrease of said pressor response is an indication of angiotensin I converting enzyme inhibition, ranging up to 80% or greater after 10 mg/kg i.v., or lower doses, which decrease may be sustained up to 60 minutes.

[3] = target: T1, angiotensin-converting enzyme isolated from lungs of adult male rabbits (Oryctolagus cuniculus, UniProt P12822); test: in vitro inhibition of the angiotensin-converting enzyme (hippuryl-histidyl-leucine substrate); assay type: biochemical; conditions: rabbit lung enzyme, 37° for 30 minutes
T1 construct: angiotensin-converting enzyme isolated from lungs of adult male rabbits; from tissue; host or cells: lungs of adult male rabbits
T1 sequence (P12822 34-1310): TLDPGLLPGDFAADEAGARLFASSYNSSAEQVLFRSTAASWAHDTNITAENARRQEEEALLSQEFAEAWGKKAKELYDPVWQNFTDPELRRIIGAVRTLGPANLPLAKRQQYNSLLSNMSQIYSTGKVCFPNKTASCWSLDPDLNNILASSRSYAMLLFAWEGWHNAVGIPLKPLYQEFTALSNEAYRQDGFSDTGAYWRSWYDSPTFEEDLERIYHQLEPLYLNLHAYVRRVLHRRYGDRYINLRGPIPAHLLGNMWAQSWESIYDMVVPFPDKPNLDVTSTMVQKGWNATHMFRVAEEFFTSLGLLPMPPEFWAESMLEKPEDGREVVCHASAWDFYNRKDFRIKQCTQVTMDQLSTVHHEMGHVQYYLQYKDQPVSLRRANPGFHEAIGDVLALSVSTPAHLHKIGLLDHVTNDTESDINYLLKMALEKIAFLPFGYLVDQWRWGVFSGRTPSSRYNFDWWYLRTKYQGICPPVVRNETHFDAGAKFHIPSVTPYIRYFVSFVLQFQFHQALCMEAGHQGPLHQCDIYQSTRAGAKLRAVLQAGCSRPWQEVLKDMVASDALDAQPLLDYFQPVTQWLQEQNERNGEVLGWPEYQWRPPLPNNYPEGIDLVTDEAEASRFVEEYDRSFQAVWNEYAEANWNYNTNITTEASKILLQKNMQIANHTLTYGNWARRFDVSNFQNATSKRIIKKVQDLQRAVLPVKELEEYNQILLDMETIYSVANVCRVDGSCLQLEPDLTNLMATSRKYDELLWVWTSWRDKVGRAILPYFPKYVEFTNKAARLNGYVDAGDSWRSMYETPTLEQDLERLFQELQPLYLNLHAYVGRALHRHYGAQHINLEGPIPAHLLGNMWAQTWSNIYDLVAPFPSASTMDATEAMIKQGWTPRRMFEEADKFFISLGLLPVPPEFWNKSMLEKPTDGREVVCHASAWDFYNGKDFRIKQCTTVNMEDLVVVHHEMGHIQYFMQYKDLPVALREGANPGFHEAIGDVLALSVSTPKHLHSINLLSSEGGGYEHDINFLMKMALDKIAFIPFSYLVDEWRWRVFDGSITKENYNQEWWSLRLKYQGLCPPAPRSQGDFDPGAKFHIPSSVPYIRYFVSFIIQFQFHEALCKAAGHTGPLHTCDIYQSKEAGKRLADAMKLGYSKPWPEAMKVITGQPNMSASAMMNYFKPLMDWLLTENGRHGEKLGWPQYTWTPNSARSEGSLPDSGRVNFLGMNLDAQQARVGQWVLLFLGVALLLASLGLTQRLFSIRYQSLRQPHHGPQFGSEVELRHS
Procedure: Biophys. Acta 293, 451 (1973). According to this method, said compounds are dissolved at about 1 mM concentrations in phosphate buffer, externally cooled with ice. To these solutions various μl of histidyl-leucine in phosphate buffer are added, followed by 100 μl of 5 mM hippuryl-histidyl-leucine in phosphate buffer and 50 μl of the angiotensin-converting enzyme isolated from lungs of adult male rabbits, which is freshly prepared in Tris buffer containing potassium and magnesium chloride, as well as sucrose. Said solutions are incubated at 37° for 30 minutes and combined with 0.75 m- of 0.6 N aqueous sodium hydroxide to stop further reaction. Then 100 μl of o-phthalaldehyde are added at room temperature, and 10 minutes later 100 μl of 6N hydrochloric acid are also added. These samples are read against water in a spectrophotometer set at 360 nm, and the optical densities thereof estimated. They are corrected for the standard curve via a conversion factor expressing nanomoles of histidyl-leucine formed during said 30 minute incubation period. The results are plotted against drug concentration to determine the IC50, i.e., the drug concentration which gives half the activity of the control sample containing no drug. Again, said representative members of the compounds of this invention are very effective in this in vitro test system.

Row | Structure (SMILES) | decrease of heart rate [1] | lowering of blood pressure [1] | inhibition of the pressor response following angiotensin I challenge [2] | IC50 [3] [nM]
1 | O=C(N[C@H](CCC(=O)N1c2ccccc2C[C@H]1C(=O)O)C(=O)O)OCc1ccccc1 [Example 1, 1-(N-Benzyloxycarbonyl-γ-R-glutamyl)indoline-2-S-carboxylic acid] | decrease the heart rate | lower blood pressure | about 70% | ~7
2 | O=C(N[C@H](CCC(=O)N1c2ccccc2C[C@H]1C(=O)O)C(=O)O)c1cccnc1 [Example 5, 1-(N-Nicotinoyl-γ-R-glutamyl)-indoline-2S-carboxylic acid] | decrease the heart rate | lower blood pressure |  | 
